Assay results as given in ChEMBL document CHEMBL3046509, “Synthesis and structure--activity relationships of substituted cinnamic acids and amide analogues: a new class of herbicides” (2009).

Legend:
Assay in all cases: whole plant or invertebrate
Type in all cases: functional
Conditions in all cases: Raphanus sativus, Japanese White, 120 h
Radish [1] = system: Radish
Description: Herbicidal activity against Raphanus sativus var.Japanese White (radish) assessed as inhibition of seed germination at 200 ppm at 25 degC measured after 5 days

Radish [2] = system: Radish; remark: listed apart in the source
Description: Herbicidal activity against Raphanus sativus var.Japanese White (radish) assessed as inhibition of seed germination at 100 ppm at 25 degC measured after 5 days

Radish [3] = system: Radish; remark: listed apart in the source
Description: Herbicidal activity against Raphanus sativus var.Japanese White (radish) assessed as inhibition of seed germination at 50 ppm at 25 degC measured after 5 days

O=C(/C=C/c1ccccc1[N+](=O)[O-])Nc1ccccc1 was tested, and the inhibition at 200 ppm (Radish [1]) was 100%, the inhibition at 100 ppm (Radish [2]) was 86.7% and the inhibition at 50 ppm (Radish [3]) was 73.3%.
For COc1ccc(/C=C/C(=O)Nc2ccc(C)cc2)cc1, the inhibition at 200 ppm (Radish [1]) was 100%, the inhibition at 100 ppm (Radish [2]) was 93.3% and the inhibition at 50 ppm (Radish [3]) was 70%.
For O=C(O)/C=C/c1ccccc1[N+](=O)[O-], the inhibition at 200 ppm (Radish [1]) was 100%, the inhibition at 100 ppm (Radish [2]) was 86.7% and the inhibition at 50 ppm (Radish [3]) was 70%.
With O=C(/C=C/c1ccccc1[N+](=O)[O-])Nc1ccccc1Cl the inhibition at 200 ppm (Radish [1]) was 100%, the inhibition at 100 ppm (Radish [2]) was 93.3% and the inhibition at 50 ppm (Radish [3]) was 86.7%.
O=C(/C=C/c1cccc([N+](=O)[O-])c1)Nc1ccccc1Cl gave an inhibition at 200 ppm (Radish [1]) of 100%, an inhibition at 100 ppm (Radish [2]) of 93.3% and an inhibition at 50 ppm (Radish [3]) of 83.3%.
Compound O=C(/C=C/c1ccc([N+](=O)[O-])cc1)Nc1ccccc1Cl has an inhibition at 200 ppm (Radish [1]) of 100%, an inhibition at 100 ppm (Radish [2]) of 86.7% and an inhibition at 50 ppm (Radish [3]) of 80%.
Compound O=C(/C=C/c1cccc(Cl)c1)Nc1ccccc1Cl has an inhibition at 200 ppm (Radish [1]) of 76.7%, an inhibition at 100 ppm (Radish [2]) of 53.3% and an inhibition at 50 ppm (Radish [3]) of 33.3%.
For COc1ccc(/C=C/C(=O)Nc2ccccc2Cl)cc1, the inhibition at 200 ppm (Radish [1]) was 96.7%, the inhibition at 100 ppm (Radish [2]) was 83.3% and the inhibition at 50 ppm (Radish [3]) was 76.7%.
In the case of O=C(/C=C/c1cccc(O)c1)Nc1ccccc1Cl, the inhibition at 200 ppm (Radish [1]) is reported as 93.3%, the inhibition at 100 ppm (Radish [2]) is reported as 80% and the inhibition at 50 ppm (Radish [3]) is reported as 56.7%.
O=C(O)/C=C/c1cccc(O)c1 showed an inhibition at 200 ppm (Radish [1]) of 100%, an inhibition at 100 ppm (Radish [2]) of 86.7% and an inhibition at 50 ppm (Radish [3]) of 56.7%.
O=C(O)/C=C/c1ccc([N+](=O)[O-])cc1 was tested, and the inhibition at 200 ppm (Radish [1]) was 96.7%, the inhibition at 100 ppm (Radish [2]) was 93.3% and the inhibition at 50 ppm (Radish [3]) was 70%.
O=C(/C=C/c1cccc(Cl)c1)Nc1ccccc1 [3-CHLORO-CINNAMANILIDE] gave an inhibition at 200 ppm (Radish [1]) of 100%, an inhibition at 100 ppm (Radish [2]) of 93.3% and an inhibition at 50 ppm (Radish [3]) of 70%.
In the case of O=C(O)/C=C/c1cccc(Cl)c1 [3-CHLORO-CINNAMIC ACID], the inhibition at 200 ppm (Radish [1]) is reported as 93.3%, the inhibition at 100 ppm (Radish [2]) is reported as 76.7% and the inhibition at 50 ppm (Radish [3]) is reported as 53.3%.
In the case of O=C(/C=C/c1cccc(O)c1)Nc1ccccc1 [3-HYDROXY-CINNAMANILIDE], the inhibition at 200 ppm (Radish [1]) is reported as 100%, the inhibition at 100 ppm (Radish [2]) is reported as 86.7% and the inhibition at 50 ppm (Radish [3]) is reported as 53.3%.
With O=C(/C=C/c1cccc([N+](=O)[O-])c1)Nc1ccccc1 [3-NITRO-CINNAMANILIDE] the inhibition at 200 ppm (Radish [1]) was 100%, the inhibition at 100 ppm (Radish [2]) was 73.3% and the inhibition at 50 ppm (Radish [3]) was 70%.
With O=C(O)/C=C/c1cccc([N+](=O)[O-])c1 [3-NITRO-CINNAMIC ACID] the inhibition at 200 ppm (Radish [1]) was 100%, the inhibition at 100 ppm (Radish [2]) was 80% and the inhibition at 50 ppm (Radish [3]) was 70.3%.
COc1ccc(/C=C/C(=O)Nc2ccccc2)cc1 [4-METHOXY-CINNAMANILIDE] was tested, and the inhibition at 200 ppm (Radish [1]) was 93.3%, the inhibition at 100 ppm (Radish [2]) was 76.7% and the inhibition at 50 ppm (Radish [3]) was 53.3%.
COc1ccc(/C=C/C(=O)O)cc1 [4-METHOXYCINNAMIC ACID] showed an inhibition at 200 ppm (Radish [1]) of 93.3%, an inhibition at 100 ppm (Radish [2]) of 66.7% and an inhibition at 50 ppm (Radish [3]) of 56.7%.
Cc1ccc(NC(=O)/C=C/c2ccccc2[N+](=O)[O-])cc1 [4-METHYL-(2'-NITRO)CINNAMANILIDE] showed an inhibition at 200 ppm (Radish [1]) of 93.3%, an inhibition at 100 ppm (Radish [2]) of 80% and an inhibition at 50 ppm (Radish [3]) of 63.3%.
Compound Cc1ccc(NC(=O)/C=C/c2cccc(Cl)c2)cc1 [4-METHYL-(3'-CHLORO)CINNAMANILIDE] has an inhibition at 200 ppm (Radish [1]) of 93.3%, an inhibition at 100 ppm (Radish [2]) of 83.3% and an inhibition at 50 ppm (Radish [3]) of 70%.
Cc1ccc(NC(=O)/C=C/c2cccc([N+](=O)[O-])c2)cc1 [4-METHYL-(3'-NITRO)CINNAMANILIDE] was tested, and the inhibition at 200 ppm (Radish [1]) was 96.7%, the inhibition at 100 ppm (Radish [2]) was 86.7% and the inhibition at 50 ppm (Radish [3]) was 73.3%.
O=C(/C=C/c1ccccc1[N+](=O)[O-])Nc1ccc([N+](=O)[O-])cc1 [4-NITRO-(2'-NITRO)CINNAMANILIDE] was tested, and the inhibition at 200 ppm (Radish [1]) was 96.7%, the inhibition at 100 ppm (Radish [2]) was 86.7% and the inhibition at 50 ppm (Radish [3]) was 73.3%.
O=C(/C=C/c1ccc([N+](=O)[O-])cc1)Nc1ccc([N+](=O)[O-])cc1 [4-NITRO-(4'-NITRO)CINNAMANILIDE] was tested, and the inhibition at 200 ppm (Radish [1]) was 93.3%, the inhibition at 100 ppm (Radish [2]) was 66.7% and the inhibition at 50 ppm (Radish [3]) was 60%.
In the case of O=C(/C=C/c1ccc([N+](=O)[O-])cc1)Nc1ccccc1 [4-NITRO-CINNAMANILIDE], the inhibition at 200 ppm (Radish [1]) is reported as 100%, the inhibition at 100 ppm (Radish [2]) is reported as 90% and the inhibition at 50 ppm (Radish [3]) is reported as 83.3%.
O=C(O)/C=C/c1ccc(O)cc1 [COUMARIC ACID] was tested, and the inhibition at 200 ppm (Radish [1]) was 100%, the inhibition at 100 ppm (Radish [2]) was 73.3% and the inhibition at 50 ppm (Radish [3]) was 53.3%.
In the case of CSc1nnc(C(C)(C)C)c(=O)n1N [METRIBUZIN], the inhibition at 200 ppm (Radish [1]) is reported as 100%, the inhibition at 100 ppm (Radish [2]) is reported as 93.3% and the inhibition at 50 ppm (Radish [3]) is reported as 80%.
